One assay has as its system S. Aureus bacteria. Nature of the assay: antibacterial activity against S. Aureus. Type of assay: cell-based.
For assay [1], the system named is blood platelets (platelet rich, citrated, human blood plasma). In words: inhibition of platelet aggregation in platelet rich, citrated human blood plasma (aggregometer), agonist ADP or collagen. Type of assay: cell-based. Conditions: for pIC50: agonist ADP (10 μg), read-out: ID50 (the source's name).
For assay [2] the test system is unchanged. The assay is described as above. The class given is cell-based. Conditions: for pIC50: agonist COLLAGEN (2 μg), read-out: ID50 (the source's name). The source says:
(§1) Various substances are known to cause blood platelets to aggregate which in turn can result in blood clots in the blood circulatory system of living animals. Certain other compounds are known to prevent blood platelet aggregation and accordingly are known as antithrombotic agents, while other compounds prevent clotting of aggregated platelets and are called anticoagulants. Both are used in the treatment of phlebitis, stroke, coronary thrombosis, and arteriosclerosis. In a typical test to determine antithrombotic activity, the suspected antithrombotic substance is mixed with a suspension of blood platelets, incubated for a few minutes, and then the suspension is treated with a known amount of a known agonist (agents inducing aggregation). The effectiveness of the suspected antithrombotic is compared to a control which has been treated with the agonist but which has not been treated with the antithrombotic and a quantitative measure of effectiveness is determined by ascertaining the concentration of suspected antithromobotic necessary to reduce by 50% the extent of platelet aggregation compared to the control. This measurement is termed the ID50 of the antithrombotic. Typical agonists include collagen and ADP (adenosine diphosphate).
Platelet rich, citrated, human blood plasma (250,000 platelets/μL) was prepared and divided into 0.45 ml aliquots for use in determining ID50 levels of the subject compounds. The aliquots were treated with various quantities of the compounds of the instant invention and thereafter were preincubated by maintaining in an aggregometer curvette for two (2) minutes at 37° C. with stirring (950 RPM). Control aliquots free of antithrombotic component, were maintained and subjected to each of the processing steps. Each aliquot was then treated with an agonist in this instance being an appropriate amount of ADP (10 μmole) or collagen (2 μg). Aggregation in each aliquot was monitored for a period of 3-5 minutes and percent aggregation was quantified by a dual channel aggregometer which ascertained percent aggregation by comparision against a control of light transmittance through the sample.

The subject of another assay is blood platelets. Nature of the assay: antithrombotic activity in combination with other known antithrombotics.
From the text: as §1

pIC50: −log10 of the molar value. Read-outs that look alike come from different tables or passages of the source.

Take `C=CC[S+]([O-])CC=CSS(=O)(=O)CC=C` (stereo not shown) [Example 5, (E,Z)-4,5,9-trithiadodeca-1,6,11-triene 4,4,9-trioxide]: the “growth of S. Aureus bacteria” value in the assay on S. Aureus bacteria (0.25 m. molar concentration) is reported as “growth of the bacteria was inhibited”. Also, in the assay with S. Aureus bacteria (1.0 m. molar concentration), the “killing of S. Aureus bacteria” value is given as “killing of the bacteria”. Consider `C=CCS(=O)(=O)C/C=C/SSCCC` [Aliquot 10], for which, in assay [1] (Homo sapiens, Platelet), the pIC50 was 3.68. Regarding `C=CCSS/C=C/C[S+]([O-])CCCC(=O)OCC` (stereo not shown) [Aliquot 9], the pIC50 in assay [2] (Homo sapiens, Platelet) was 3.41; in assay [1] (Homo sapiens, Platelet) it was 3.41. Turning to `C=CCSS/C=C/C[S+](C)[O-]` (stereo not shown) [Aliquot 4], the pIC50 in assay [2] (Homo sapiens, Platelet) is 3.43; in assay [1] (Homo sapiens, Platelet), under 3.40. Take `CCCCC[C@H](O)/C=C/[C@@H]1[C@H]2C/C(=C/CCCC(=O)O)O[C@H]2C[C@H]1O` [prostacyclin]: the “antithrombotic activity when combined with various compounds of the invention” value with blood platelets is reported as “particularly enhanced antithrombotic activity”.

With `C=CCS(=O)(=O)C/C=C/SSC/C=C\CCC` [Aliquot 13], the pIC50 in assay [1] (Homo sapiens, Platelet) is 3.55.

As for `COc1ccc2c(c1)c(CC(=O)O)c(C)n2C(=O)c1ccc(Cl)cc1` [Indomethacin, indomethacin], the “antithrombotic activity when combined with various compounds of the invention” value in the assay with blood platelets is “particularly enhanced antithrombotic activity”. Take `C=CCS(=O)(=O)C/C=C/SSCc1ccccc1` [Aliquot 12]: the pIC50 in assay [1] (Homo sapiens, Platelet) is 3.69. Regarding “(E)-4,5,9-trithiadodeca-6,11-diene 9,9 dioxide [Aliquot 10]”, the pIC50 in assay [1] is 3.74. Turning to `C=CCS(=O)(=O)C/C=C/SSC/C=C/C` [Aliquot 11], the pIC50 in assay [1] (Homo sapiens, Platelet) is 3.68. For the molecule `CSS/C=C/C[S+](C)[O-]` (stereo not shown) [Aliquot 5, (E) 2,3,7-trithiaocta-4-ene 7-oxide], the pIC50 is 3.48 in assay [2] (Homo sapiens, Platelet) and under 3.40 in assay [1] (Homo sapiens, Platelet).

On to `C=CCS(=O)(=O)C/C=C/SS(=O)(=O)CC=C` [Aliquot 8, (E) 4,5,9-trithiadodeca-1,6,11-triene 4,4,9,9-tetraoxide], for which the “effect on platelet aggregation” value in assay [1] (at levels of 40 μg/ml of ADP) is listed as “appears to act as an agonist”. For “(E,Z)-4,5,9-trithiadodeca-1,6,11-triene 9,9dioxide [Example 2]”, the values for the pIC50 in assay [2] and in assay [1] were 3.67 and 3.68, respectively. As to `C=CCSSCCC[S+]([O-])CC=C` (stereo not shown) [Aliquot 3], the pIC50 in assay [2] (Homo sapiens, Platelet) was under 3.40; in assay [1] (Homo sapiens, Platelet), under 3.40. `C=CCS(=O)(=O)C/C=C/SS(=O)(=O)CC=C` [Aliquot 8]: the “ID50 columns: result in words” value in assay [2] (printed across the ADP (10 μg) and COLLAGEN (2 μg) columns) was “Causes Aggregation”. With `C=CCS(=O)(=O)C/C=C/SSC/C=C/CCC` [Aliquot 14], the pIC50 in assay [1] (Homo sapiens, Platelet) is under 3.40.
